This assay concerns the target IL-17RA/IL17RC dimerization induced by IL-17A (Homo sapiens, UniProt Q16552). In words: IL-17RA/IL17RC dimerization assay in response to IL-17A (PathHunter Cytokine Receptor Assay). The conditions noted are these: IL-17A at EC80; read-out: IC50 in IL-17RA/IL7RC dimerization assay. Format: cell-based. The gist of the method:
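Receptor dimerization was read as chemiluminescence from complemented β-galactosidase after IL-17A at EC80 concentration for 6–16 h at 37 °C. Peptides were added 60 min before agonist, at 37 °C or room temperature, with 1% vehicle. Percent inhibition used the EC80-stimulated and vehicle wells as references.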

Residues, ends and D or L forms follow the SMILES beside them.

Chain of IL-17RA/IL17RC dimerization induced by IL-17A (Q16552 24-155): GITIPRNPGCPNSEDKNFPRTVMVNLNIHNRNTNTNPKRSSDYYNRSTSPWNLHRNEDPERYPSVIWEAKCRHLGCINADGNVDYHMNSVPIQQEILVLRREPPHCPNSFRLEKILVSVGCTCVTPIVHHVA

Take `CC[C@H](C)[C@H](NC(C)=O)C(=O)N[C@@H](Cc1c[nH]cn1)C(=O)N[C@H](C(=O)N[C@H](C(=O)N[C@H](C(=O)N1CCC[C@H]1C(=O)N[C@@H](C)C(=O)N[C@@H](Cc1ccc(O)cc1)C(=O)N[C@@H](CC(C)C)C(=O)N[C@@H](Cc1c[nH]c2ccccc12)C(=O)N[C@@H](CC(=O)O)C(=O)N[C@@H](Cc1c[nH]c2ccccc12)C(=O)N[C@H](C(=O)N[C@@H](CC(N)=O)C(=O)N[C@@H](CCCCN)C(N)=O)[C@@H](C)CC)[C@@H](C)CC)[C@@H](C)O)C(C)C` [SEQ ID NO: 200] (Ac-IHVTIPAYLWDWINK-NH2): the IC50 was less than 10 µM.

For the compound `CC[C@H](C)[C@H](NC(C)=O)C(=O)N[C@@H](Cc1c[nH]cn1)C(=O)N[C@H](C(=O)N[C@H](C(=O)N[C@H](C(=O)N1CCC[C@H]1C(=O)N[C@@H](C)C(=O)N[C@@H](CC(=O)O)C(=O)N[C@@H](CC(C)C)C(=O)N[C@@H](Cc1c[nH]c2ccccc12)C(=O)N[C@@H](CC(=O)O)C(=O)N[C@@H](Cc1c[nH]c2ccccc12)C(=O)N[C@@H](CCC(=O)O)C(=O)N[C@@H](CC(N)=O)C(=O)N[C@@H](CCCCN)C(N)=O)[C@@H](C)CC)[C@@H](C)O)C(C)C` [SEQ ID NO: 212] (Ac-IHVTIPADLWDWENK-NH2), the IC50 was less than 10 µM.

With `CC[C@H](C)[C@H](NC(C)=O)C(=O)N[C@@H](Cc1c[nH]cn1)C(=O)N[C@H](C(=O)N[C@@H](Cc1ccc(O)cc1)C(=O)N[C@H](C(=O)N1CCC[C@H]1C(=O)N[C@@H](C)C(=O)N[C@@H](CC(=O)O)C(=O)N[C@@H](CC(C)C)C(=O)N[C@@H](Cc1c[nH]c2ccccc12)C(=O)N[C@@H](CC(=O)O)C(=O)N[C@@H](Cc1c[nH]c2ccccc12)C(=O)N[C@H](C(=O)N[C@@H](CC(N)=O)C(=O)N[C@@H](CCCCN)C(N)=O)[C@@H](C)CC)[C@@H](C)CC)C(C)C` [SEQ ID NO: 176] (Ac-IHVYIPADLWDWINK-NH2), the IC50 was less than 10 µM. Under `CC[C@H](C)[C@H](NC(C)=O)C(=O)N[C@@H](Cc1c[nH]cn1)C(=O)N[C@H](C(=O)N[C@H](C(=O)N[C@H](C(=O)N1CCC[C@H]1C(=O)N[C@@H](CC(C)C)C(=O)N[C@@H](CCC(=O)O)C(=O)N[C@H](C(=O)N[C@@H](Cc1ccccc1)C(=O)N[C@@H](CCC(=O)O)C(=O)N[C@@H](Cc1c[nH]c2ccccc12)C(=O)N[C@@H](C)C(=O)N[C@@H](CCC(N)=O)C(=O)N[C@@H](Cc1c[nH]cn1)C(N)=O)[C@@H](C)CC)[C@@H](C)CC)[C@@H](C)O)C(C)C` [SEQ ID NO: 247] (Ac-IHVTIPLEIFEWAQH-NH2) stands less than 10 µM. Under `CC[C@H](C)[C@H](NC(C)=O)C(=O)N[C@@H](Cc1c[nH]cn1)C(=O)N[C@H](C(=O)N[C@H](C(=O)N[C@@H](C)C(=O)N1CCC[C@H]1C(=O)N[C@@H](C)C(=O)N[C@@H](CC(=O)O)C(=O)N[C@@H](CC(C)C)C(=O)N[C@@H](Cc1c[nH]c2ccccc12)C(=O)N[C@@H](CC(=O)O)C(=O)N[C@@H](Cc1c[nH]c2ccccc12)C(=O)N[C@H](C(=O)N[C@@H](CC(N)=O)C(=O)N[C@@H](CCCCN)C(N)=O)[C@@H](C)CC)[C@@H](C)O)C(C)C` [SEQ ID NO: 179] (Ac-IHVTAPADLWDWINK-NH2) stands less than 10 µM; under `CC[C@H](C)[C@H](NC(=O)[C@H](CCC(N)=O)NC(=O)[C@@H](NC(=O)[C@H](Cc1c[nH]cn1)NC(=O)[C@@H](NC(C)=O)C(C)C)C(C)C)C(=O)N1CCC[C@H]1C(=O)N[C@@H](C)C(=O)N[C@@H](CC(=O)O)C(=O)N[C@@H](Cc1ccccc1)C(=O)N[C@@H](Cc1c[nH]c2ccccc12)C(=O)N[C@@H](CCC(=O)O)C(=O)N[C@@H](Cc1c[nH]c2ccccc12)C(=O)N[C@@H](Cc1ccccc1)C(=O)N[C@@H](CCCNC(=N)N)C(=O)N[C@@H](CCCNC(=N)N)C(N)=O` [SEQ ID NO: 143] (Ac-VHVQIPADFWEWFRR-NH2), less than 0.5 µM; under `CC(=O)N[C@H](C(=O)N[C@@H](Cc1c[nH]cn1)C(=O)N[C@H](C(=O)N[C@@H](CO)C(=O)N[C@H](C(=O)N1CCC[C@H]1C(=O)N[C@@H](CCC(N)=O)C(=O)N[C@@H](CCC(=O)O)C(=O)N[C@@H](CC(C)C)C(=O)N[C@@H](Cc1ccc(O)cc1)C(=O)N[C@@H](CCC(=O)O)C(=O)N[C@@H](Cc1c[nH]c2ccccc12)C(=O)N[C@H](C(=O)N[C@@H](CCCNC(=N)N)C(=O)N[C@@H](CCCNC(=N)N)C(N)=O)C(C)C)C(C)C)C(C)C)C(C)C` [SEQ ID NO: 232] (Ac-VHVSVPQELYEWVRR-NH2), less than 10 µM. `CC[C@H](C)[C@H](NC(C)=O)C(=O)N[C@@H](Cc1c[nH]cn1)C(=O)NCC(=O)N[C@H](C(=O)N[C@H](C(=O)N1CCC[C@H]1C(=O)N[C@@H](C)C(=O)N[C@@H](CC(=O)O)C(=O)N[C@@H](CC(C)C)C(=O)N[C@@H](Cc1c[nH]c2ccccc12)C(=O)N[C@@H](CC(=O)O)C(=O)N[C@@H](Cc1c[nH]c2ccccc12)C(=O)N[C@H](C(=O)N[C@@H](CC(N)=O)C(=O)N[C@@H](CCCCN)C(N)=O)[C@@H](C)CC)[C@@H](C)CC)[C@@H](C)O` [SEQ ID NO: 168] (Ac-IHGTIPADLWDWINK-NH2): the IC50 was less than 10 µM.

Take `CC[C@H](C)[C@H](NC(C)=O)C(=O)N[C@@H](Cc1c[nH]cn1)C(=O)N[C@H](C(=O)N[C@H](C(=O)N[C@H](C(=O)N1CCC[C@H]1C(=O)N[C@@H](C)C(=O)N[C@@H](CC(=O)O)C(=O)N[C@@H](C)C(=O)N[C@@H](Cc1c[nH]c2ccccc12)C(=O)N[C@@H](CC(=O)O)C(=O)N[C@@H](Cc1c[nH]c2ccccc12)C(=O)N[C@H](C(=O)N[C@@H](CC(N)=O)C(=O)N[C@@H](CCCCN)C(N)=O)[C@@H](C)CC)[C@@H](C)CC)[C@@H](C)O)C(C)C` [SEQ ID NO: 201] (Ac-IHVTIPADAWDWINK-NH2): the IC50 is less than 10 µM.

For `CC(=O)N[C@H](C(=O)N[C@@H](Cc1c[nH]cn1)C(=O)N[C@H](C(=O)N[C@H](C(=O)N[C@H](C(=O)N1CCC[C@H]1C(=O)N[C@@H](CCC(N)=O)C(=O)N[C@@H](CCC(=O)O)C(=O)N[C@@H](CC(C)C)C(=O)N[C@@H](Cc1c[nH]c2ccccc12)C(=O)N[C@@H](CCC(=O)O)C(=O)N[C@@H](Cc1c[nH]c2ccccc12)C(=O)N[C@H](C(=O)N[C@@H](CCC(=O)O)C(=O)N[C@@H](CCC(=O)O)C(N)=O)C(C)C)C(C)C)[C@@H](C)O)C(C)C)C(C)C` [SEQ ID NO: 227] (Ac-VHVTVPQELWEWVEE-NH2), the IC50 was less than 10 µM. Take `CC[C@H](C)[C@H](NC(C)=O)C(=O)N[C@@H](Cc1c[nH]cn1)C(=O)N[C@H](C(=O)N[C@@H](CO)C(=O)N[C@H](C(=O)N1CCC[C@H]1C(=O)N[C@@H](C)C(=O)N[C@@H](CC(=O)O)C(=O)N[C@@H](CC(C)C)C(=O)N[C@@H](Cc1c[nH]c2ccccc12)C(=O)N[C@@H](CC(=O)O)C(=O)N[C@@H](Cc1c[nH]c2ccccc12)C(=O)N[C@H](C(=O)N[C@@H](CC(N)=O)C(=O)N[C@@H](CCCCN)C(N)=O)[C@@H](C)CC)[C@@H](C)CC)C(C)C` [SEQ ID NO: 175] (Ac-IHVSIPADLWDWINK-NH2): the IC50 was less than 10 µM. In the case of `CC[C@H](C)[C@H](NC(C)=O)C(=O)N[C@@H](CCCCN)C(=O)N[C@H](C(=O)N[C@H](C(=O)N[C@H](C(=O)N1CCC[C@H]1C(=O)N[C@@H](C)C(=O)N[C@@H](CC(=O)O)C(=O)N[C@@H](CC(C)C)C(=O)N[C@@H](Cc1c[nH]c2ccccc12)C(=O)N[C@@H](CC(=O)O)C(=O)N[C@@H](Cc1c[nH]c2ccccc12)C(=O)N[C@H](C(=O)N[C@@H](CC(N)=O)C(=O)N[C@@H](CCCCN)C(N)=O)[C@@H](C)CC)[C@@H](C)CC)[C@@H](C)O)C(C)C` [SEQ ID NO: 163] (Ac-IKVTIPADLWDWINK-NH2), the IC50 was less than 10 µM. Under `CC[C@H](C)[C@H](NC(C)=O)C(=O)N[C@@H](Cc1c[nH]cn1)C(=O)N[C@H](C(=O)N[C@H](C(=O)N[C@H](C(=O)N1CCC[C@H]1C(=O)N[C@@H](C)C(=O)N[C@@H](CC(=O)O)C(=O)N[C@@H](CC(C)C)C(=O)N[C@@H](Cc1c[nH]c2ccccc12)C(=O)N[C@@H](CC(=O)O)C(=O)N[C@@H](Cc1c[nH]c2ccccc12)C(=O)N[C@@H](Cc1ccccc1)C(=O)N[C@@H](CC(N)=O)C(=O)N[C@@H](CCCCN)C(N)=O)[C@@H](C)CC)[C@@H](C)O)C(C)C` [SEQ ID NO: 218] (Ac-IHVTIPADLWDWFNK-NH2) stands less than 10 µM; under `CC(=O)N[C@H](C(=O)N[C@@H](CCCNC(=N)N)C(=O)N[C@@H](Cc1ccccc1)C(=O)N[C@@H](CCC(N)=O)C(=O)N[C@@H](Cc1ccccc1)C(=O)NCC(=O)N[C@@H](CCC(N)=O)C(=O)N[C@@H](CCC(=O)O)C(=O)N[C@@H](Cc1c[nH]c2ccccc12)C(=O)N[C@@H](Cc1ccc(O)cc1)C(=O)N[C@@H](CC(N)=O)C(=O)N[C@@H](Cc1ccccc1)C(=O)N[C@@H](Cc1ccccc1)C(=O)N[C@@H](CCCNC(=N)N)C(=O)N[C@@H](CCCNC(=N)N)C(N)=O)C(C)C` [SEQ ID NO: 155] (Ac-VRFQFGQEWYNFFRR-NH2), less than 0.5 µM. In the case of `CC(=O)N[C@H](C(=O)N[C@@H](Cc1c[nH]cn1)C(=O)N[C@@H](Cc1ccccc1)C(=O)N[C@@H](CCC(N)=O)C(=O)N[C@@H](Cc1ccccc1)C(=O)N1CCC[C@H]1C(=O)N[C@@H](C)C(=O)N[C@@H](CC(=O)O)C(=O)N[C@@H](CC(C)C)C(=O)N[C@@H](Cc1c[nH]c2ccccc12)C(=O)N[C@@H](CCC(=O)O)C(=O)N[C@@H](Cc1c[nH]c2ccccc12)C(=O)N[C@@H](Cc1ccccc1)C(=O)N[C@@H](CCCNC(=N)N)C(=O)N[C@@H](CCCNC(=N)N)C(N)=O)C(C)C` [SEQ ID NO: 135] (Ac-VHFQFPADLWEWFRR-NH2), the IC50 is less than 0.5 µM. As for `CC(=O)N[C@H](C(=O)N[C@@H](Cc1c[nH]cn1)C(=O)N[C@@H](Cc1ccccc1)C(=O)N[C@@H](CCC(N)=O)C(=O)N[C@@H](Cc1ccccc1)C(=O)N1CCC[C@H]1C(=O)N[C@@H](CCC(N)=O)C(=O)N[C@@H](CC(=O)O)C(=O)N[C@@H](Cc1c[nH]c2ccccc12)C(=O)N[C@@H](Cc1c[nH]c2ccccc12)C(=O)N[C@@H](CCC(=O)O)C(=O)N[C@@H](Cc1c[nH]c2ccccc12)C(=O)N[C@H](C(=O)N[C@@H](CCCNC(=N)N)C(=O)N[C@@H](CCCNC(=N)N)C(N)=O)C(C)C)C(C)C` [SEQ ID NO: 136] (Ac-VHFQFPQDWWEWVRR-NH2), the figure is less than 0.5 µM.

Source of the values: patent publication US11236129B2, “IL-17A binding peptides and medical uses thereof” (Dompe' Farmaceutici S.P.A., priority 2018, dated 2022).
